# Entries after “also recorded” stand apart in the source; their conditions may differ. Read-outs that look alike come from different tables or passages of the source.
# How the values were obtained:
# [1] = Serum P4 in neonatal rats after P4 treatment (P4-specific ELISA); assay type: in vivo; conditions: repeated daily injections of P4 (Oil-P4 group)
# Procedure: FIG. 2. Pharmacokinetics of progesterone treatment in neonatal rats. Three-day-old rats were treated with 2.0 mg P4 Silastic capsule, (n=5-7), injected daily with 0.5 mg P4 for 7 days (n=5-9), or vehicle (n=5-9).
# (§1) Experiments with Silastic capsules. Neonatal female rats (3-day-old [D3]) were divided into 3 groups for the treatment (Chart 1). The Control group was subcutaneously (sc) injected with sesame oil daily for 7-days. The Oil-P4 group was injected sc with progesterone (P4) (0.5 mg P4/50 μl oil) daily for 7-days. The sC-P4 group was implanted sc with a given single P4 Silastic capsule (sC-P4) (2 mg P4/5 μl oil in a Silastic capsule having dimensions: ID 1.02 mm, OD 2.16 mm, Length 8 mm). Sera were collected by tail clipping (n=5-7) on days 6, 10, 14 and 24, and serum P4 was measured by P4-specific ELISA kit (EIA5486, DRG International Inc., NJ). Uterine histology was examined in weeks 7 and 28. Collected uterine tissues were fixed in 4% paraformaldehyde. Tissues were washed with ethanol, processed, and embedded in paraffin wax. Paraffin-embedded tissue blocks were cut into 6 μm thick sections. For general histological observation, slides were stained with hematoxylin and eosin (HE staining). The number of uterine glands was counted from HE-stained uterine tissue sections (n=2-4). At 5-months-old, the estrous cycle was monitored for 10 days by vaginal cytology (n=2-4). […]
# female rats = assay: Fertility test with fertility-proven male rats; assay type: in vivo; conditions: neonatally treated rats tested at 5 months
# Procedure: Neonatal P4 Silastic capsule implant induces permanent infertility. Starting at 5-months of age, the estrous cycle was determined by microscopy of vaginal smears for 10 days (Table 1). […] After the estrous cycle observation, female rats were caged with fertility-proven male rats for 1 month to evaluate fertility. Seventy-five percent (¾) of the Control untreated and Oil-P4 groups were fertile, averaging 12 and 13 pups, respectively. By comparison, none of the sC-P4 was fertile.
# as §1, with “Collected uterine tissues were fixed in 4% paraformaldehyde. Tissues were washed with ethanol, processed, and embedded in paraffin wax. Paraffin-embedded tissue blocks were cut into 6 μm thick sections. For general histological observation, slides were stained with hematoxylin and eosin (HE staining).” left out
# uterine glands = conditions: cited from earlier work
# uterine gland = conditions: repetitive injections of neonatal ewe lambs; oviduct, cervix, vagina not inhibited; cited from earlier work
SMILES,maximum increase in serum P4 levels compared to the Control ([1]; 6 days after the start of injections) [fold],time serum P4 remained significantly elevated ([1]; experimental day 16) [days],fertility outcome (female rats),adenogenesis at PND 10 (uterine glands; mice treated with P4 during PND 3-5 or 7-9),"adenogenesis at PND 10 (uterine glands; mice treated with P4 during PND 3-9, 5-9, or 3-7)",uterine glands in adulthood (uterine glands; mice treated with P4 during PND 3-9),uterine gland development on PND 20 (uterine glands; mice treated with P4 during PND 5-9 or 3-7),adenogenesis (uterine gland)
"CC(=O)[C@H]1CC[C@H]2[C@@H]3CCC4=CC(=O)CC[C@]4(C)[C@H]3CC[C@]12C [P4, progesterone]",2,10,insufficient to achieve infertility,not,abolished adenogenesis,lacked glands in adulthood; also recorded: lack uterine glands in adulthood,resumption of uterine gland development,
CC(=O)O[C@]1(C(C)=O)CC[C@H]2[C@@H]3CCC4=CC(=O)CC[C@@H]4[C@H]3[C@@H](C)C[C@@]21C [norgestomet],,,,,,,,irreversibly inhibits adenogenesis

# Source: US20250152606A1, “INDUCTION OF IRREVERSIBLE INFERTILITY IN FEMALE MAMMALIAN ANIMALS USING A SINGLE PROGESTERONE IMPLANT” (THE BOARD OF TRUSTEES OF THE UNIVERSITY OF ILLINOIS, priority 2022, published 2025)
